Results taken from ChEMBL document CHEMBL1138200, “Dihydropyrrolopyrazole transforming growth factor-beta type I receptor kinase domain inhibitors: a novel benzimidazole series with selectivity versus transforming growth factor-beta type II receptor kinase and mixed lineage kinase-7” (J Med Chem, 2006).

What was measured:
TGF-beta receptor type-2 = TGF-beta receptor type-2 (Homo sapiens, UniProt P37173); experiment: Inhibition of recombinant human TGFbeta R2 expressed in Sf9 cells
[1] = target: Mitogen-activated protein kinase kinase kinase 20 (Homo sapiens, UniProt Q9NYL2); experiment: Inhibition of MLK7
Mitogen-activated protein kinase kinase kinase 20, sequence (Q9NYL2 whole entry): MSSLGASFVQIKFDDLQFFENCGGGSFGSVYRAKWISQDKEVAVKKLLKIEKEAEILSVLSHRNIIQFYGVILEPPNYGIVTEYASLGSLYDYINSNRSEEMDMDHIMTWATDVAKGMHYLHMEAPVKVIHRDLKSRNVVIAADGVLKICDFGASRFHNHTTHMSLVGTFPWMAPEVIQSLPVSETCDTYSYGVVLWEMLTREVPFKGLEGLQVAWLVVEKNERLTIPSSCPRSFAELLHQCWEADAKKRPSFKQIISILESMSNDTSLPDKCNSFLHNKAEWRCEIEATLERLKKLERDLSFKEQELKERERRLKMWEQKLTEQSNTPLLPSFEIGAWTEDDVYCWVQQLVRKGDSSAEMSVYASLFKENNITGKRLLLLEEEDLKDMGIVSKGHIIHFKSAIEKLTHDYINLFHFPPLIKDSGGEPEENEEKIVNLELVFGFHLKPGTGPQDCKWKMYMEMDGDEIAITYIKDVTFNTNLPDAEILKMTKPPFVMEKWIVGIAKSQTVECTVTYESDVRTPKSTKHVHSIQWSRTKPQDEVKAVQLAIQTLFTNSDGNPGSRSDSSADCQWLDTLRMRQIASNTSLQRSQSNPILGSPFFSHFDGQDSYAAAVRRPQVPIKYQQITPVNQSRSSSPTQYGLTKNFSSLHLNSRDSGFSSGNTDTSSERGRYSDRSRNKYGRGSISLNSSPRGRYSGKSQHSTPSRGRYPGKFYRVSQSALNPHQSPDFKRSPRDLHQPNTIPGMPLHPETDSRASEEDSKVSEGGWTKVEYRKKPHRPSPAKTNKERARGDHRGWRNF

TGF-beta receptor type-1 [2] = target: T1, TGF-beta receptor type-1 (Homo sapiens, UniProt P36897); experiment: Inhibition of recombinant human TGFbeta R1 expressed in Sf9 cells
T1 sequence (P36897 whole entry): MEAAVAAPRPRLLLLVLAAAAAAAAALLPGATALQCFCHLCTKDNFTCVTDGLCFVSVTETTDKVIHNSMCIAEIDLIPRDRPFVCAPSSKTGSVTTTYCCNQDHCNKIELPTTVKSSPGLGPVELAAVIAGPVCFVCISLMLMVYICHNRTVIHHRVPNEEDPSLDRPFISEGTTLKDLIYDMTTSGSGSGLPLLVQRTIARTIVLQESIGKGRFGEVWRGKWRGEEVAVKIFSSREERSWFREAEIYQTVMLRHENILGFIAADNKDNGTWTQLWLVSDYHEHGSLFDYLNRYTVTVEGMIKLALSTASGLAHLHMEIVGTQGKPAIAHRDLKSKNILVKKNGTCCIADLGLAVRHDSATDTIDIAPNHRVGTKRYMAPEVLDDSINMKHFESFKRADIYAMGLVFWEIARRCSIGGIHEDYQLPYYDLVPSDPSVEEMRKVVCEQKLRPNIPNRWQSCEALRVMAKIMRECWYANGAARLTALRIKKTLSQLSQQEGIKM

TGF-beta receptor type-1 [3] = target: T1, TGF-beta receptor type-1; experiment: Inhibition of TGFbeta R1 induced transcriptional activation of p3TP-Lux in mink Mv1Lu lung cells; format: functional, cell-based, Mustela
[4] = Inhibitory activity against TGF-beta-stimulated proliferation in NIH3T3 cells; format: functional, cell-based; conditions: Mus musculus
Cytochrome P450 2D6 = Cytochrome P450 2D6 (Homo sapiens, UniProt P10635); experiment: Inhibition of cytochrome P450 2D6; format: ADME
Cytochrome P450 2D6, sequence (P10635 whole entry): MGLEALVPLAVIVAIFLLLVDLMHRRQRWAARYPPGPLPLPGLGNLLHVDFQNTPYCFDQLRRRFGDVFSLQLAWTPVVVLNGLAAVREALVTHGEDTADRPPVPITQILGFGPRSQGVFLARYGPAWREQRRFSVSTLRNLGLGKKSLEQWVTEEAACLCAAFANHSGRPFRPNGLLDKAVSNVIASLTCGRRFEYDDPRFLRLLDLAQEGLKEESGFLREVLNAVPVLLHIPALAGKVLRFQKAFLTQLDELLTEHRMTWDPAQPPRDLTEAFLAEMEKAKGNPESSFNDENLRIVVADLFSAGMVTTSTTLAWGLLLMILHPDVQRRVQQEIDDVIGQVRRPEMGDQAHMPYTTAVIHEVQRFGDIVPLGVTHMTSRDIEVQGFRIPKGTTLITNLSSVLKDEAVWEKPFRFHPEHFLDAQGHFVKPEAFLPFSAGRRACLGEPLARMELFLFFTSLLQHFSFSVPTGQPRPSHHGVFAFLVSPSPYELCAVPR

TGF-beta receptor type-2, sequence (P37173 whole entry): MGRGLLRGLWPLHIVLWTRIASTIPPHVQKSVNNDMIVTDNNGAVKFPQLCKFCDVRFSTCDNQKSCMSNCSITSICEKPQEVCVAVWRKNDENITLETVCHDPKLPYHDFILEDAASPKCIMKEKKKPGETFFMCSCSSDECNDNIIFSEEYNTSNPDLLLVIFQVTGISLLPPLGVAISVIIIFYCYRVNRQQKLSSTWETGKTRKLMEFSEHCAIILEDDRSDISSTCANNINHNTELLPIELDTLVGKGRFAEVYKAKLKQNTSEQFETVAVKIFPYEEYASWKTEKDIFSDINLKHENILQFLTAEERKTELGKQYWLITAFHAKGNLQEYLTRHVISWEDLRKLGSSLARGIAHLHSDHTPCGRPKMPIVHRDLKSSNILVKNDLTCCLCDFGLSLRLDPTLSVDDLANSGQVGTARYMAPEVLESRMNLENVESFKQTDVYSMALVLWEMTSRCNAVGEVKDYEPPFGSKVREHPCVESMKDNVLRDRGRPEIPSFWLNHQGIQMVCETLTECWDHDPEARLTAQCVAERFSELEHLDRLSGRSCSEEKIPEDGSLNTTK

What does the source list for Cc1cccc(-c2nn3c(c2-c2ccc4c(c2)ncn4CCCOC2CCCCO2)CCC3)n1 (stereo not drawn)?
IC50 (TGF-beta receptor type-2): 14500 nM; IC50 [1]: > 20000 nM; IC50 (TGF-beta receptor type-1 [2]): 1830 nM; IC50 (TGF-beta receptor type-1 [3]): 2430 nM

For CN(C)CCCn1cnc2ccc(-c3c(-c4ccccn4)nn4c3CCC4)cc21, which IC50 (TGF-beta receptor type-2) is on record?
The IC50 was > 20000 nM.

What about the IC50 [4] of the same molecule?
The IC50 was 1000 nM.

What about the IC50 [1] of the same molecule?
The IC50 was 15900 nM.

And the IC50 (TGF-beta receptor type-1 [2])?
The IC50 was 398 nM.

And the IC50 (TGF-beta receptor type-1 [3])?
Its IC50 is 104 nM.

For OCCCn1cnc2ccc(-c3c(-c4ccccn4)nn4c3CCC4)cc21, which IC50 (TGF-beta receptor type-2) is on record?
Its IC50 is 352 nM.

What about the IC50 [4] of the same molecule?
Its IC50 is 371 nM.

What about the IC50 [1] of the same molecule?
Its IC50 is 708 nM.

And the IC50 (TGF-beta receptor type-1 [2])?
Its IC50 is 79 nM.

And the IC50 (TGF-beta receptor type-1 [3])?
The IC50 was 79 nM.

For Cc1cccc(-c2nn3c(c2-c2ccc4ncn(CCCN5CCCC5)c4c2)CCC3)n1, which IC50 (TGF-beta receptor type-2) is on record?
Its IC50 is > 20000 nM.

And the IC50 [4]?
The IC50 was 249 nM.

And the IC50 [1]?
The IC50 was > 20000 nM.

What about the IC50 (TGF-beta receptor type-1 [2]) of the same molecule?
The IC50 was 74 nM.

What about the IC50 (TGF-beta receptor type-1 [3]) of the same molecule?
Its IC50 is 117 nM.

Which IC50 (TGF-beta receptor type-2) does the source give for Cc1cccc(-c2nn3c(c2-c2ccc4c(ccn4C)c2)CCC3)n1 here?
Its IC50 is > 20000 nM.

What about the IC50 [1] of the same molecule?
Its IC50 is > 20000 nM.

What about the IC50 (TGF-beta receptor type-1 [2]) of the same molecule?
The IC50 was 4100 nM.

With Cc1cccc(-c2nn3c(c2-c2ccc4nc[nH]c4c2)CCC3)n1 as the molecule, how does the IC50 (TGF-beta receptor type-2) read?
Its IC50 is 1300 nM.

What about the IC50 [4] of the same molecule?
The IC50 was 42 nM.

What about the IC50 (Cytochrome P450 2D6) of the same molecule?
Its IC50 is 27000 nM.

And the IC50 [1]?
Its IC50 is 15900 nM.

And the IC50 (TGF-beta receptor type-1 [2])?
Its IC50 is 47 nM.

And the IC50 (TGF-beta receptor type-1 [3])?
The IC50 was 15 nM.

Which IC50 (TGF-beta receptor type-2) does the source give for Cn1cnc2ccc(-c3c(-c4ccccn4)nn4c3CCC4)cc21 here?
The IC50 was 395 nM.

And the IC50 [4]?
The IC50 was 32 nM.

What about the IC50 [1] of the same molecule?
The IC50 was 1310 nM.

What about the IC50 (TGF-beta receptor type-1 [2]) of the same molecule?
The IC50 was 75 nM.

What about the IC50 (TGF-beta receptor type-1 [3]) of the same molecule?
Its IC50 is 8 nM.

What does the source list for c1ccc(-c2n[nH]cc2-c2ccnc3ccccc23)nc1?
IC50 (TGF-beta receptor type-2): 400 nM; IC50 [4]: 81 nM; IC50 [1]: 1400 nM

Which IC50 (TGF-beta receptor type-2) does the source give for Cc1cccc(-c2nn3c(c2-c2ccc4ncn(CCCO)c4c2)CCC3)n1 here?
Its IC50 is 690 nM.

What about the IC50 [4] of the same molecule?
The IC50 was 371 nM.

And the IC50 [1]?
Its IC50 is 2810 nM.

And the IC50 (TGF-beta receptor type-1 [2])?
The IC50 was 41 nM.

And the IC50 (TGF-beta receptor type-1 [3])?
The IC50 was 78 nM.

For CCN(CC)CCCn1cnc2ccc(-c3c(-c4cccc(C)n4)nn4c3CCC4)cc21, which IC50 (TGF-beta receptor type-2) is on record?
The IC50 was > 20000 nM.

What about the IC50 [4] of the same molecule?
The IC50 was 274 nM.

And the IC50 [1]?
Its IC50 is > 20000 nM.

What about the IC50 (TGF-beta receptor type-1 [2]) of the same molecule?
Its IC50 is 122 nM.

What about the IC50 (TGF-beta receptor type-1 [3]) of the same molecule?
The IC50 was 100 nM.

With Cn1ccc2cc(-c3c(-c4ccccn4)nn4c3CCC4)ccc21 as the molecule, how does the IC50 (TGF-beta receptor type-2) read?
Its IC50 is > 20000 nM.

What about the IC50 [1] of the same molecule?
Its IC50 is 16600 nM.

What about the IC50 (TGF-beta receptor type-1 [2]) of the same molecule?
The IC50 was 12200 nM.

Which results are given for c1ccc(-c2nn3c(c2-c2ccc4c(c2)ncn4CCCOC2CCCCO2)CCC3)nc1 (stereo not drawn)?
IC50 (TGF-beta receptor type-2): > 20000 nM; IC50 [4]: 4700 nM; IC50 [1]: > 20000 nM; IC50 (TGF-beta receptor type-1 [2]): 6580 nM; IC50 (TGF-beta receptor type-1 [3]): 5890 nM

With Cc1cccc(-c2nn3c(c2-c2ccc4ncn(CCCN5CCOCC5)c4c2)CCC3)n1 as the molecule, how does the IC50 (TGF-beta receptor type-2) read?
Its IC50 is 19800 nM.

And the IC50 [4]?
Its IC50 is 277 nM.

And the IC50 [1]?
Its IC50 is 8480 nM.

What about the IC50 (TGF-beta receptor type-1 [2]) of the same molecule?
Its IC50 is 69 nM.

And the IC50 (TGF-beta receptor type-1 [3])?
Its IC50 is 186 nM.

Which IC50 (TGF-beta receptor type-2) does the source give for c1ccc(-c2nn3c(c2-c2ccc4[nH]cnc4c2)CCC3)nc1 here?
The IC50 was 8730 nM.

What does the source list for Cc1cccc(-c2nn3c(c2-c2ccc4ncn(C)c4c2)CCC3)n1?
IC50 (TGF-beta receptor type-2): 668 nM; IC50 [4]: 96 nM; IC50 [1]: 2340 nM; IC50 (TGF-beta receptor type-1 [2]): 22 nM; IC50 (TGF-beta receptor type-1 [3]): 29 nM

For c1ccc(-c2nn3c(c2-c2ccc4[nH]ccc4c2)CCC3)nc1, which IC50 (TGF-beta receptor type-2) is on record?
Its IC50 is > 20000 nM.

And the IC50 [1]?
The IC50 was > 20000 nM.

What about the IC50 (TGF-beta receptor type-1 [2]) of the same molecule?
Its IC50 is > 20000 nM.

Which results are given for c1ccc(-c2nn3c(c2-c2ccc4ncn(CCCN5CCCC5)c4c2)CCC3)nc1?
IC50 (TGF-beta receptor type-2): 10800 nM; IC50 [4]: 854 nM; IC50 [1]: 4880 nM; IC50 (TGF-beta receptor type-1 [2]): 246 nM; IC50 (TGF-beta receptor type-1 [3]): 226 nM

Which results are given for Cn1cnc2cc(-c3c(-c4ccccn4)nn4c3CCC4)ccc21?
IC50 (TGF-beta receptor type-2): 19600 nM; IC50 [4]: 1620 nM; IC50 [1]: > 20000 nM; IC50 (TGF-beta receptor type-1 [2]): 4740 nM; IC50 (TGF-beta receptor type-1 [3]): 1370 nM

Which IC50 (TGF-beta receptor type-2) does the source give for Cc1cccc(-c2nn3c(c2-c2ccc4ncn(CCCN(C)C)c4c2)CCC3)n1 here?
Its IC50 is > 20000 nM.

What about the IC50 [4] of the same molecule?
The IC50 was 139 nM.

What about the IC50 [1] of the same molecule?
The IC50 was > 20000 nM.

And the IC50 (TGF-beta receptor type-1 [2])?
The IC50 was 85 nM.

What about the IC50 (TGF-beta receptor type-1 [3]) of the same molecule?
Its IC50 is 53 nM.

With Cc1cccc(-c2nn3c(c2-c2ccc4ncn(CCCN5CCCCC5)c4c2)CCC3)n1 as the molecule, how does the IC50 (TGF-beta receptor type-2) read?
The IC50 was > 20000 nM.

And the IC50 [4]?
Its IC50 is 150 nM.

What about the IC50 [1] of the same molecule?
The IC50 was > 20000 nM.

What about the IC50 (TGF-beta receptor type-1 [2]) of the same molecule?
Its IC50 is 155 nM.

What about the IC50 (TGF-beta receptor type-1 [3]) of the same molecule?
The IC50 was 51 nM.
